Structures are written as SMILES. Activity calls are given as the source filed them. How the calls were made is not given here. Where only a bound is given, the exact number is not on record here.

Sequence of NEDD8-conjugating enzyme Ubc12 (Homo sapiens) + NEDD8-activating enzyme E1 regulatory subunit (Homo sapiens) (P61081 whole entry, looked up): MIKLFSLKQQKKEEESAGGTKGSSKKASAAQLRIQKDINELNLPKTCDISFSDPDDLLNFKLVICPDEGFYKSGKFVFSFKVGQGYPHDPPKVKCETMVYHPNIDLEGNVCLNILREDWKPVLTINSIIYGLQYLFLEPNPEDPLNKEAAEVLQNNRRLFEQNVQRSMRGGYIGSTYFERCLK
Sequence of NEDD8-conjugating enzyme Ubc12 (Homo sapiens) + NEDD8-activating enzyme E1 regulatory subunit (Homo sapiens) (Q13564 whole entry, looked up): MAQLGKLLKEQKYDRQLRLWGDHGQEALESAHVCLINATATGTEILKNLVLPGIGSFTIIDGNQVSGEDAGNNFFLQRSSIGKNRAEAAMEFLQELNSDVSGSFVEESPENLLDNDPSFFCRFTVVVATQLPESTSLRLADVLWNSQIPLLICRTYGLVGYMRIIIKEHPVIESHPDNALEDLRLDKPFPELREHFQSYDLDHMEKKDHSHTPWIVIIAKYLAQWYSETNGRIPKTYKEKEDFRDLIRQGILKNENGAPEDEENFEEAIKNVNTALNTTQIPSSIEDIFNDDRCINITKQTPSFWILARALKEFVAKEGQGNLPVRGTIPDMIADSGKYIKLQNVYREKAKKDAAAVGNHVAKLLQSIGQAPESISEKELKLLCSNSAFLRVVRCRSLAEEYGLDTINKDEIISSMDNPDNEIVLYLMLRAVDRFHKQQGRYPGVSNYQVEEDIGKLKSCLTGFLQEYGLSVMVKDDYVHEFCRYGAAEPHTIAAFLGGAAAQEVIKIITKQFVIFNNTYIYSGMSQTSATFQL

This assay has as its target NEDD8-conjugating enzyme Ubc12 (Homo sapiens) + NEDD8-activating enzyme E1 regulatory subunit (Homo sapiens) (UniProt P61081+Q13564). Put plainly: inhibitors of CUL1 neddylation, potency, dose response, biochemical, TR-FRET (AID 652247). The note with it: in vitro CUL1 neddylation.
For `CC1CCCC(C)N1C(=O)CN1c2cccc3cccc(c23)S1(=O)=O` (stereo unspecified), the IC50 entry is “inactive”.

With `CC(=O)Nc1nc(C)c(-c2csc(Nc3ccc(S(N)(=O)=O)cc3)n2)s1`, the IC50 is 11.7 µM.

As for `COCCCNC(=O)/C(C#N)=C/c1c(N2CCN(c3ccccc3)CC2)nc2ccccn2c1=O`, the IC50 entry is “inactive”.

Regarding `CS(=O)(=O)N(CC(=O)N/N=C/c1cccc2c1OCCO2)c1ccccc1Br`, the IC50 entry was “inactive”.

Regarding `COc1cc2c(cc1OC)-c1cc(NCc3ccccn3)nc(=O)n1CC2`, the IC50 result was “inactive”.

As for `O=C(O)c1ccc2c(=O)n3c(nc2c1)/C(=C/c1ccc(C(F)(F)F)cc1)CC3`, the IC50 entry was “inactive”.

`COc1ccc2[nH]c(C(=O)N/N=C/c3cc(OC)c(OC)c(OC)c3)cc2c1`: the IC50 entry is “inactive”.

`CCOC(=O)c1cc2c(=O)n3ccccc3nc2n(C(C)C)c1=NC(=O)c1ccncc1`: the IC50 result was “inactive”.

With `COc1ccc(-c2cc3ccc(OCc4nn[nH]n4)cc3oc2=O)cc1OC`, the IC50 was 6.88 µM.

Turning to `O=C(N/N=C/c1ccc2cccnc2c1)c1nc2ccccc2c(=O)[nH]1`, the IC50 is > 100 µM (inactive).

In the case of `CCCCCCc1c(C)c2ccc(OCC(=O)N3CCC[C@H]3C(=O)O)c(C)c2oc1=O`, the IC50 entry is “inactive”.

In the case of `O=C(CN1c2cccc3cccc(c23)S1(=O)=O)NCc1ccc(F)cc1`, the IC50 entry was “inactive”.

Take `COc1ccc(-c2cc3nc(NCCN4CCCC4)n(C)c(=O)c3s2)cc1OC`: the IC50 entry is “inactive”.

For the compound `CC1CCN(C(=O)Nc2ccc3nsnc3c2)CC1`, the IC50 result was “inactive”.

As for `C=CCNC(=S)N/N=C/c1ccc(N(CC)Cc2ccccc2)cc1`, the IC50 entry was “inactive”.

With `COC(=O)C1C(O)=C(C=Nc2cccc3ccccc23)C(=O)CC1(C)C` (stereo unspecified), the IC50 entry is “inactive”.

For the compound `Cc1cccn2c(=O)c3cc(C(=O)NC4CCCC4)sc3nc12`, the IC50 is 9.39 µM.

Take `CCOC(=O)c1cc2c(=O)n3ccccc3nc2n(CCOC)c1=NC(=O)c1ccncc1`: the IC50 entry is “inactive”.

Take `CCOC(=O)CNC(=O)c1sc(NC(=O)c2ccccc2F)nc1C`: the IC50 entry is “inactive”.

With `CCOc1ccc2[nH]c3ncccc3c(=O)c2c1`, the IC50 result was “inactive”.

With `CCOc1ccccc1NC(=O)CN1c2cccc3cccc(c23)S1(=O)=O`, the IC50 entry is “inactive”.

Take `Cc1ccc(C(C(=O)NCC2CCCO2)N(C(=O)c2snc(C(N)=O)c2N)c2ccc(F)cc2)o1` (stereo unspecified): the IC50 is > 100 µM (inactive).

Take `CCN(CC)c1ccc(/C=N/NC(=O)CNC(=O)c2cccs2)cc1`: the IC50 is 14.9 µM.

Regarding `CC(=O)Nc1cc(-c2ccc(N3CCN(C)CC3)cc2)cn2c(-c3ccc(F)cc3)cnc12`, the IC50 result is “inactive”.

With `CCN(/N=C/c1ccc(N(C)C)cc1)c1nc2ccccc2[nH]1`, the IC50 result was “inactive”.

Consider `COc1ccc(-c2cc(=O)c3cc(O)ccc3o2)cc1`, for which the IC50 result is “inactive”.

Turning to `COc1ccc2cc3cc(C(=O)NCCc4ccc(OC)c(OC)c4)oc3nc2c1`, the IC50 is 19.7 µM.

In the case of `COc1cc2sc(-c3ccc(S(C)(=O)=O)cc3)c(C#CCO)c2cc1OC`, the IC50 result was “inactive”.

Consider `O=C(NC1CCCCC1)c1cnn2c(C(F)(F)F)cc(-c3ccco3)nc12`, for which the IC50 result is “inactive”.

Regarding `CN(C)CCn1c(SCc2ccccc2C#N)nc2c(sc3ccccc32)c1=O`, the IC50 result was “inactive”.

As for `CCOc1ccc(C(=O)N/N=C/c2ccc(-c3ccc(S(=O)(=O)Nc4ncccn4)cc3)o2)cc1`, the IC50 entry is “inactive”.

As for `O=C(O)Cn1c(=O)c(-c2ccccc2)nc2ccccc21`, the IC50 entry was “inactive”.

For `O=C(O)c1cc(N2CCCCC2)nc2ccccc12`, the IC50 result was “inactive”.

`Cc1ccc2c(c1)COc1c3ccc(C(=O)NCC4CC4)cc3nn1-2`: the IC50 entry was “inactive”.

As to `CCc1ccc(-c2cnc3nc[nH]c(=O)c3n2)cc1`, the IC50 was 14.4 µM.

On to `C[n+]1ccc(-c2ccccc2)c2ccccc21`, for which the IC50 is > 100 µM (inactive).

Consider `COCCN1C=C(C(=O)OC)C(c2ccc3c(c2)OCO3)C(C(=O)OC)=C1`, for which the IC50 entry was “inactive”.

On to `O=C(CCCc1c[nH]c2ccccc12)N1CCN(c2ccc(N3CCOCC3)nn2)CC1`, for which the IC50 result was “inactive”.

Take `CCN(CC)CCNC(=O)Cn1c(-c2ccccn2)nc2ccccc21`: the IC50 entry was “inactive”.

Turning to `CN(C)c1ccc(-c2nc3cnccn3c2Nc2ccc3c(c2)OCCO3)cc1`, the IC50 result was “inactive”.

Consider `COCCNc1c2c(c(C#N)c3nc4ccccc4n13)CCCC2`, for which the IC50 result is “inactive”.

Take `COc1ccccc1N1CCN(C(=O)c2cc3c(=O)n4cccc(C)c4nc3s2)CC1`: the IC50 entry was “inactive”.

For `COC(=O)c1ccc2[nH]c3c(c2c1)CC(C)CC3` (stereo unspecified), the IC50 result was “inactive”.

With `CC(=O)OCCc1c2ccccc2c(CCCN(C)C)c2ccccc12`, the IC50 was 11.9 µM.

On to `COc1ccc(C(CC(=O)N2CCCCC2)c2c(OC)cc(OC)c3ccc(=O)oc23)cc1` (stereo unspecified), for which the IC50 entry was “inactive”.

As for `O=C(O)c1ccc(/C=N/NC(=O)c2ccc(CN3c4cccc5cccc(c45)S3(=O)=O)cc2)cc1`, the IC50 entry is “inactive”.

With `CN1CCOc2c1cnn(CCO)c2=O`, the IC50 result was “inactive”.

Regarding `CCN(CC)CCOC(=O)c1ccc(N/C=C(/C#N)c2nc(-c3ccc(OC)cc3)cs2)cc1`, the IC50 is > 100 µM (inactive).

For the compound `Cc1cc(C)n2nc(-c3cnn(C)c3C(F)(F)F)cc2n1`, the IC50 result was “inactive”.

As for `Cc1cccc(C)c1NC(=O)C(c1ccncc1)n1c(=O)c(-c2ccccc2)nc2ccccc21` (stereo unspecified), the IC50 result is “inactive”.

With `O=C(NC1CCCCC1)C(c1ccncc1)n1c(=O)c(-c2ccccc2)nc2ccccc21` (stereo unspecified), the IC50 result is “inactive”.

Turning to `O=C(O)CCc1ccc(-c2ccccc2)n1CC1CCCO1` (stereo unspecified), the IC50 result was “inactive”.

With `CCOC(=O)N1CCN(S(=O)(=O)c2ccc3c4c(cccc24)C(=O)N3)CC1`, the IC50 entry is “inactive”.

Regarding `COC(=O)c1nc2cc3c(cc2c(C)c1C(=O)OC)OCO3`, the IC50 result was “inactive”.

As to `COC(=O)c1ccc(C(=O)OC)c(=O)[nH]1`, the IC50 result was “inactive”.

In the case of `Cn1ncc2cc3c(Nc4ccc(Cl)cc4)cccc3nc21`, the IC50 result is “inactive”.

Consider `c1ccc(C[n+]2cccc3c4ccccc4ccc32)cc1`, for which the IC50 was 9.52 µM.

For `Cc1ccc(-n2c3nc(=O)n(C)c(=O)c-3cc3ccccc32)cc1`, the IC50 is 17.9 µM.

For `Cc1cccc(OCC(=O)N/N=C/c2ccc(N(C)C)cc2)c1`, the IC50 result was “inactive”.

With `CCC(=O)N/C(N)=N/c1nc(C)c2cc(OC)ccc2n1`, the IC50 entry is “inactive”.

On to `CCN1CCN(C(=O)c2ccc3nc(-c4ccccc4)c(-c4ccccc4)nc3c2)CC1`, for which the IC50 result was “inactive”.

Take `COc1ccc(C(C(=O)NCC2CCCO2)N(C(=O)c2snc(C(N)=O)c2N)c2ccccc2)cc1OC` (stereo unspecified): the IC50 result was “inactive”.

For `O=c1[nH]c2ccccc2nc1-c1ccccc1`, the IC50 entry was “inactive”.

For `COc1cc(-c2cc(C(=O)N3CCCCCC3)c3ccccc3n2)cc(OC)c1OC`, the IC50 entry was “inactive”.

On to `COC(=O)c1ccc(/C=C2\CCn3c2nc2cc(C(=O)O)ccc2c3=O)cc1`, for which the IC50 result is “inactive”.

For the compound `Cc1ccc2nc(-c3ccc(NC(=O)COCC(=O)O)cc3)sc2c1`, the IC50 is > 100 µM (inactive).

With `CCNC(=O)/C(C#N)=C/c1c(N2CCN(c3ccccc3)CC2)nc2ccccn2c1=O`, the IC50 result was “inactive”.

As to `COc1ccc(Nc2cc3n(c(=O)n2)CCc2cc(OC)c(OC)cc2-3)cc1`, the IC50 entry was “inactive”.

Take `COc1cccc(Cn2cc(/C=N/NC(=O)c3cc(O)cc(O)c3)c3ccccc32)c1`: the IC50 entry was “inactive”.

As to `COc1ccc(OC)c(C=NNC(=O)c2ccc(NS(=O)(=O)c3cccs3)cc2)c1`, the IC50 result was “inactive”.

Take `COc1ccc2cc(C(=O)N/N=C/c3cc(OC)c(OC)c(OC)c3)[nH]c2c1`: the IC50 entry is “inactive”.

Regarding `O=C(O)c1sc2cc(C(F)(F)F)cnc2c1-c1cccs1`, the IC50 result was “inactive”.

Take `O=C(NCCc1ccc(Cl)cc1Cl)C1=CC=CN2CCS(=O)(=O)N=C12`: the IC50 result was “inactive”.

`CN(C)c1ccc(/C=N/NC(=O)CCc2nc3ccccc3[nH]2)cc1`: the IC50 entry is “inactive”.

Regarding `COc1ccc2sc(-c3ccc(SC)cc3)c(C#CCO)c2c1`, the IC50 result is “inactive”.

`Cc1ccc(C)c(OCC(=O)N/N=C/c2ccc(N3CCOCC3)cc2)c1`: the IC50 result was “inactive”.

Take `Cc1ccc2cc3cc(C(=O)NCCCN4CCc5ccccc5C4)oc3nc2c1`: the IC50 is 10.6 µM.

Regarding `Cc1cccc(C)c1NC(=O)C(C1CC1)n1c(=O)c(-c2ccccc2)nc2ccccc21` (stereo unspecified), the IC50 result is “inactive”.

For the compound `COc1cc(/C=N/Nc2nc3ccccc3[nH]2)cc(Br)c1OCC(=O)N(C)C`, the IC50 entry is “inactive”.

In the case of `COc1cc(F)ccc1-c1cc(C(=O)Nc2ccc(NC(C)=O)cc2)[nH]n1`, the half-maximal inhibitory concentration (IC50) was 19.4 µM.

For `OC1CCCN(Cc2c3ccccc3cc3ccccc23)C1` (stereo unspecified), the IC50 entry is “inactive”.

Consider `COCCNC(=O)c1ccc2c3n(nc2c1)-c1ccc(C)cc1CO3`, for which the IC50 result was “inactive”.

As to `CN=Cc1c(NC)nc2c(C)cccn2c1=O`, the IC50 result was “inactive”.

For `COCc1cc(C)nc2sc(C(=O)Nc3ccc(OC)cc3)c(N)c12`, the IC50 was > 100 µM (inactive).

For the compound `CC1(C)CC(NC(=O)COc2ccc3c4c(c(=O)oc3c2)CCCC4)CC(C)(C)N1`, the IC50 entry was “inactive”.

With `CCc1c(C)c2ccc(OC(C)C(=O)NC(Cc3c[nH]c4ccc(O)cc34)C(=O)O)c(C)c2oc1=O` (stereo unspecified), the IC50 entry is “inactive”.

Regarding `COc1ccc(-c2cc(C(=O)N(C)CC(=O)Nc3ccccc3Cl)c3ccccc3n2)cc1OC`, the IC50 entry is “inactive”.

With `Cc1csc(NC(=O)c2cc(=O)[nH]c3ccc(S(=O)(=O)N4CCOCC4)cc23)n1`, the IC50 entry is “inactive”.

Regarding `COCCNC(=O)CSc1ccc(-c2nc3ccccc3[nH]2)cn1`, the IC50 result was “inactive”.

On to `CC(=CCOc1ccc2ccc(=O)oc2c1)C1=CC(=O)C(C)(C)O1`, for which the IC50 result was “inactive”.

Regarding `C=CCNC(=O)c1ccc2c3n(nc2c1)-c1ccc(C)cc1CO3`, the IC50 result was “inactive”.

The IC50 is the point on the concentration scale where inhibition reaches its midpoint.

(Values after PubChem BioAssay AID652247 (Sanford-Burnham Center for Chemical Genomics, 2013).)
